Data on eight molecules can be found in ChEMBL document CHEMBL5126543, “Tandem construction of biological relevant aliphatic 5-membered N-heterocycles” (Eur J Med Chem, 2022).

Converted amounts (≈) assume the structure as drawn. *1 amine or outer side, *2 acyl side, *3 side chain or, on linkers, in order; H or OH if unused. Where a SMILES comes first, the peptide text is derived from it. [ ]: non-standard residue; d: D form. Pro(trans-4-cHex) = O=C(O)[C@@H]1C[C@@H](C2CCCCC2)CN1; Pro(trans-4-Ph) = O=C(O)[C@@H]1C[C@@H](c2ccccc2)CN1; Pro(cis-4-OPh) = O=C(O)[C@@H]1C[C@H](Oc2ccccc2)CN1; X1 = CS[C@H]1C[C@@H](C(=O)[*:2])N([*:1])C1

One series deals with MDA-MB-231. Nature of the series: Antitumor activity against human MDA-MB-231 cells assessed as decrease in cell viability measured after 36 hrs by WST-1 assay. The format is functional, cell-based. As to conditions: MDA-MB-231, 36 h.
The next series concerns PANC-1. Nature of the series: Antitumor activity against human PANC-1 cells assessed as decrease in cell viability measured after 36 hrs by WST-1 assay. The format is functional, cell-based. As to conditions: PANC-1, 36 h.
Series [1] in a line: Cytotoxicity against human MC3T3-E1 cells assessed as decrease in cell viability measured after 36 hrs by WST-1 assay. As to conditions: mouse. The format is toxicity, cell-based.
A short description of series [2]: Selectivity index, Ratio of IC50 for human MC3T3-E1 cells to IC50 of human MDA-MB-231 cells. As to conditions: MC3T3-E1 cells versus MDA-MB-231 cells, read-out: Ratio IC50. The class given is toxicity.
Series [3] in a line: Selectivity index, Ratio of IC50 for human MC3T3-E1 cells to IC50 of human PANC-1 cells.
Series [4] concerns the target T1, Nonstructural protein 5A (Hepatitis C virus, UniProt Q5L478).
T1 sequence (Q5L478 whole entry): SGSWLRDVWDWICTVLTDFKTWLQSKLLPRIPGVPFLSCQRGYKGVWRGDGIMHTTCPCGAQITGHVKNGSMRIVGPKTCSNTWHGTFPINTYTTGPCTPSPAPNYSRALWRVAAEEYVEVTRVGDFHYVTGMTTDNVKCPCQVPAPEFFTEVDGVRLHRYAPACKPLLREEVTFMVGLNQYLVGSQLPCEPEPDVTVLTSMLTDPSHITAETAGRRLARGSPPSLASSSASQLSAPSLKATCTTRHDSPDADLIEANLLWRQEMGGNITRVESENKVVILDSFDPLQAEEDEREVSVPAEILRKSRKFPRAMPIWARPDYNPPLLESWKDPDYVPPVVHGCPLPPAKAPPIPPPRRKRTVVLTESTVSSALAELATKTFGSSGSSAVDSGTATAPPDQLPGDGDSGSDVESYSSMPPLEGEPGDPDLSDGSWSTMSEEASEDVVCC
As to the kind of experiment: Inhibition of HCV genotype 1a NS5A. On the set-up: species or system Hepacivirus hominis.

Series [5] deals with T1, Nonstructural protein 5A. As to the kind of experiment: Inhibition of HCV genotype 1b NS5A. On the set-up: species or system Hepacivirus hominis.
Series [6] deals with T1, Nonstructural protein 5A. As to the kind of experiment: Inhibition of HCV genotype 2a NS5A. Further details: species or system Hepacivirus hominis.
The target in series [7] is T1, Nonstructural protein 5A. Nature of the series: Inhibition of HCV genotype 3a NS5A. On the set-up: species or system Hepacivirus hominis.
For series [8], the target named is T1, Nonstructural protein 5A. As to the kind of experiment: Inhibition of HCV genotype 4a NS5A. On the set-up: species or system Hepacivirus hominis.
For series [9], the target named is T1, Nonstructural protein 5A. Nature of the series: Inhibition of HCV genotype 5a NS5A. On the set-up: species or system Hepacivirus hominis.
Series [10] has as its target T1, Nonstructural protein 5A. Nature of the series: Inhibition of HCV genotype 6a NS5A. On the set-up: species or system Hepacivirus hominis.
Another series concerns Escherichia coli. As to the kind of experiment: Antimicrobial activity against Escherichia coli ATCC 25922 incubated for 18 to 20 hrs. The class given is functional. As to conditions: time 18-20 hrs.
The subject of the next series is Priestia megaterium. As to the kind of experiment: Antimicrobial activity against Bacillus megaterium Bm11 incubated for 18 to 20 hrs. The following applies: time 18-20 hrs. The format is functional.
Series [11] deals with Staphylococcus epidermidis. As to the kind of experiment: Antimicrobial activity against Staphylococcus epidermidis ATCC 12228 incubated for 18 to 20 hrs. The format is functional. The following applies: time 18-20 hrs.
The next series relates to Pseudomonas aeruginosa. As to the kind of experiment: Antimicrobial activity against Pseudomonas aeruginosa ATCC 27853 incubated for 18 to 20 hrs. The following applies: time 18-20 hrs. The class given is functional.
Another series relates to Candida albicans. Nature of the series: Antimicrobial activity against Candida albicans ATCC 24433 incubated for 18 to 20 hrs. The class given is functional. The following applies: time 18-20 hrs.

As to `CCCCCCCCC#CC(c1ccc(C(=O)OC)cc1)N1CCCC1` (configuration not stated), the results for the IC50 in the series with MDA-MB-231 and in the series on PANC-1 were 291000 nM and 13600 nM, respectively. In [1], the IC50 at 36 h was determined as 558000 nM. In series [2], the selectivity ratio is 1.91. In addition, the “Ratio IC50” value in series [3] stood at 41.17.

For `CCCCCCCCC#CC(c1ccccc1)N1CCCC1` (configuration not stated), the IC50 in the series on MDA-MB-231 is 74000 nM; in the series on PANC-1, 21600 nM. Besides, the IC50 at 36 h in series [1] is 250000 nM. In addition, in series [2], the selectivity ratio stood at 3.38. The “Ratio IC50” value in series [3] came out at 11.6.

For the molecule `COC(=O)N[C@H](C(=O)N1CCC[C@H]1c1ncc(-c2ccc3c(c2)CC2c4c(F)cc(-c5cnc([C@@H]6CCCN6C(=O)[C@@H](NC(=O)OC)C(C)C)[nH]5)cc4O[C@@H](c4cnc(C5CC5)s4)N32)[nH]1)C(C)C` (some centres not stated), the EC50 on Nonstructural protein 5A [4] stood at 0.0007 nM; at Nonstructural protein 5A [5], 0.002 nM; at Nonstructural protein 5A [6], 0.001 nM; at Nonstructural protein 5A [7] it was 0.003 nM; at Nonstructural protein 5A [8] it was 0.0007 nM; at Nonstructural protein 5A [9], 0.0018 nM. Also, the EC50 on Nonstructural protein 5A [10] was 0.001 nM.

For `CC[C@H](C)[C@H](NC(=O)[C@H](CCCNC(=N)N)NC(=O)CNC(=O)[C@H](CC(C)C)NC(=O)[C@H](Cc1ccccc1)NC(=O)[C@H](CCCCN)NC(=O)[C@H](CO)NC(=O)[C@H](Cc1ccccc1)NC(=O)[C@H](Cc1c[nH]c2ccccc12)NC(=O)[C@H](CCC(N)=O)NC(=O)[C@@H]1C[C@H](Oc2ccccc2)CN1C(=O)[C@@H](NC(=O)[C@@H](N)Cc1ccccc1)C(C)C)C(=O)N[C@@H](CC(C)C)C(N)=O` (H-FV[Pro(cis-4-OPh)]QWFSKFLGRIL-NH2), the MIC against Escherichia coli was found to be 25 µM (≈ 45.7 µg/mL); against Priestia megaterium, 3.12 µM (≈ 5.71 µg/mL); in series [11], 3.12 µM (≈ 5.71 µg/mL); against Pseudomonas aeruginosa it was 50 µM (≈ 91.5 µg/mL); in the series with Candida albicans, 12.5 µM (≈ 22.9 µg/mL).

For the molecule `CC[C@H](C)[C@H](NC(=O)[C@H](CCCNC(=N)N)NC(=O)CNC(=O)[C@H](CC(C)C)NC(=O)[C@H](Cc1ccccc1)NC(=O)[C@H](CCCCN)NC(=O)[C@H](CO)NC(=O)[C@H](Cc1ccccc1)NC(=O)[C@H](Cc1c[nH]c2ccccc12)NC(=O)[C@H](CCC(N)=O)NC(=O)[C@@H]1C[C@@H](c2ccccc2)CN1C(=O)[C@@H](NC(=O)[C@@H](N)Cc1ccccc1)C(C)C)C(=O)N[C@@H](CC(C)C)C(N)=O` (H-FV[Pro(trans-4-Ph)]QWFSKFLGRIL-NH2), the MIC in the series with Escherichia coli turned out to be 12.5 µM (≈ 22.7 µg/mL); in the series on Priestia megaterium, 3.12 µM (≈ 5.66 µg/mL); in series [11], 3.12 µM (≈ 5.66 µg/mL); in the series with Pseudomonas aeruginosa, 50 µM (≈ 90.7 µg/mL); with Candida albicans, 12.5 µM (≈ 22.7 µg/mL).

With `CC[C@H](C)[C@H](NC(=O)[C@H](CCCNC(=N)N)NC(=O)CNC(=O)[C@H](CC(C)C)NC(=O)[C@H](Cc1ccccc1)NC(=O)[C@H](CCCCN)NC(=O)[C@H](CO)NC(=O)[C@H](Cc1ccccc1)NC(=O)[C@H](Cc1c[nH]c2ccccc12)NC(=O)[C@H](CCC(N)=O)NC(=O)[C@@H]1C[C@@H](C2CCCCC2)CN1C(=O)[C@@H](NC(=O)[C@@H](N)Cc1ccccc1)C(C)C)C(=O)N[C@@H](CC(C)C)C(N)=O` (H-FV[Pro(trans-4-cHex)]QWFSKFLGRIL-NH2), the MIC in the series on Escherichia coli was found to be 50 µM (≈ 91 µg/mL); against Priestia megaterium, 3.12 µM (≈ 5.68 µg/mL); in [11] it was 3.12 µM (≈ 5.68 µg/mL); with Pseudomonas aeruginosa it was 100 µM (≈ 182 µg/mL); against Candida albicans, 25 µM (≈ 45.5 µg/mL).

As for `CC[C@H](C)[C@H](NC(=O)[C@H](CCCNC(=N)N)NC(=O)CNC(=O)[C@H](CC(C)C)NC(=O)[C@H](Cc1ccccc1)NC(=O)[C@H](CCCCN)NC(=O)[C@H](CO)NC(=O)[C@H](Cc1ccccc1)NC(=O)[C@H](Cc1c[nH]c2ccccc12)NC(=O)[C@H](CCC(N)=O)NC(=O)[C@@H]1C[C@H](SC)CN1C(=O)[C@@H](NC(=O)[C@@H](N)Cc1ccccc1)C(C)C)C(=O)N[C@@H](CC(C)C)C(N)=O` (H-FV[X1]QWFSKFLGRIL-NH2), the MIC in the series on Escherichia coli is 12.5 µM (≈ 22.3 µg/mL); in the series with Priestia megaterium it was 3.12 µM (≈ 5.56 µg/mL); in [11] it was 3.12 µM (≈ 5.56 µg/mL); in the series with Pseudomonas aeruginosa, 25 µM (≈ 44.6 µg/mL); in the series with Candida albicans, 6.25 µM (≈ 11.1 µg/mL).

Take H-FVPQWFSKFLGRIL-NH2: the MIC against Escherichia coli was 12.5 µM; with Priestia megaterium it was 3.12 µM; in series [11], 3.12 µM; against Pseudomonas aeruginosa, 25 µM; in the series on Candida albicans, 12.5 µM.

The IC50 is the midpoint of a concentration-inhibition curve. A word on the EC50: it is the concentration giving half of the maximal effect. What is called MIC is the lowest concentration found to suppress growth. The low end stands for a more susceptible organism, the high end for a less susceptible organism.
